Experimental data as given in ChEMBL document CHEMBL5661943, “ASAP - In vitro antiviral effect” (2024).
Values joined by “and” are separate entries in the source; they are usually repeats but may differ in a detail not shown here. Identical values can stand only once.

Assays:
[1] = tested on: Zika virus; test: Functional CPE-based assay to measure dose dependent changes in antiviral-drug inhibitory efficacy against Zika virus MR766 in Vero E6 miRFP670 cells (cotreated with P-gp inhibitor, CP100356). Cells are treated with antiviral candidates that are serially diluted. EC50 is reported via analysis of MTS assay as a readout of CPE. The assay has been performed by KU Leuven.; assay type: organism-based, Chlorocebus sabaeus, Vero C1008
[2] = tested on: dengue virus type 2; test: Functional assay to measure dose dependent changes in antiviral-drug inhibitory efficacy against Dengue virus type 2 New Guinea C in Vero E6 miRFP670 cells (cotreated with P-gp inhibitor, CP100356). Cells are treated with antiviral candidates that are serially diluted, following infection, cells are fixed. EC50 is reported via analysis of fluorescence intensity using high-content imager. The …; assay type: organism-based, Chlorocebus sabaeus, Vero C1008; details: for EC90: P-gp concentration 500 nM, P-gp inhibitor CP100356

Compound: O=C(NCC(F)F)[C@H](Nc1cnc2c(c1)CNC2)c1cc(Cl)cc(C2CC2)c1
- EC50 ([1]; Zika virus, Vero C1008): 0.828 µM
- EC90 ([1]; Zika virus, Vero C1008, Baseline response 0 %, EC90 CI (lower) 1.299 uM, EC90 CI (upper) 2.383 uM, Hill slope 2.915, Maximum measured 110.454 %, Maximum response 100 %, Minimum measured 12.588 %, P-gp concentration 500 nM, R squared 0.958, P-gp inhibitor CP100356): 1.76 µM
- EC50 ([2]; Dengue virus, Vero C1008): > 50 µM
- EC90 ([2]; Dengue virus, Vero C1008, Maximum measured 147.541 %, Minimum measured 99.767 %): > 50 µM

Compound: O=C(Nc1cc2c(cc1C1CC1)CNC2)c1cc(F)cc2[nH]ncc12
- EC50 ([1]; Zika virus, Vero C1008): 7.12 µM
- EC90 ([1]; Zika virus, Vero C1008, Baseline response 0 %, EC90 CI (lower) 6.176 uM, EC90 CI (upper) 30.178 uM, Hill slope 3.376, Maximum measured 139.956 %, Maximum response 100 %, Minimum measured 0.398 %, P-gp concentration 500 nM, R squared 0.839, P-gp inhibitor CP100356): 13.7 µM
- EC50 ([2]; Dengue virus, Vero C1008): > 3.12 µM
- EC90 ([2]; Dengue virus, Vero C1008, Maximum measured 158.599 %, Minimum measured 73.357 %): > 3.12 µM

Compound: Cn1c(=O)[nH]c2c(C(=O)Nc3ccc4c(c3)CNC4)cc(Br)cc21
- EC50 ([1]; Zika virus, Vero C1008): 0.724 µM
- EC90 ([1]; Zika virus, Vero C1008, Baseline response 0 %, EC90 CI (lower) 0.762 uM, EC90 CI (upper) 6.925 uM, Hill slope 1.902, Maximum measured 109.696 %, Maximum response 100 %, Minimum measured 27.933 %, P-gp concentration 500 nM, R squared 0.521, P-gp inhibitor CP100356): 2.3 µM
- EC50 ([2]; Dengue virus, Vero C1008): > 50 µM
- EC90 ([2]; Dengue virus, Vero C1008, Baseline response 0 %, Hill slope -2.293, Maximum measured 105.522 %, Maximum response 100 %, Minimum measured 55.095 %, R squared 0.397): > 50 µM

Compound: O=C(Nc1ccc2c(c1)CNC2)c1cc(F)c2[nH]ccc2c1
- EC50 ([1]; Zika virus, Vero C1008): 24.5 µM
- EC90 ([1]; Zika virus, Vero C1008, Baseline response 0 %, Hill slope 0.879, Maximum measured 122.421 %, Maximum response 100 %, Minimum measured -4.109 %, P-gp concentration 500 nM, R squared 0.266, P-gp inhibitor CP100356): > 50 µM
- EC50 ([2]; Dengue virus, Vero C1008): < 0.391 µM
- EC90 ([2]; Dengue virus, Vero C1008, Baseline response 0 %, Hill slope 3.427, Maximum measured 127.165 %, Maximum response 100 %, Minimum measured 69.586 %, R squared 0.325): < 0.391 µM

Compound: O=C(Nc1cc2c(cc1Br)CNC2)c1cc(F)cc2[nH]ncc12
- EC50 ([1]; Zika virus, Vero C1008): 0.721 µM
- EC90 ([1]; Zika virus, Vero C1008, Baseline response 0 %, EC90 CI (lower) 0.74 uM, EC90 CI (upper) 4.973 uM, Hill slope 2.246, Maximum measured 124.778 %, Maximum response 100 %, Minimum measured 29.701 %, P-gp concentration 500 nM, R squared 0.756, P-gp inhibitor CP100356): 1.92 µM
- EC50 ([2]; Dengue virus, Vero C1008): > 25 µM
- EC90 ([2]; Dengue virus, Vero C1008, Baseline response 0 %, Hill slope -2.027, Maximum measured 102.892 %, Maximum response 100 %, Minimum measured 55.622 %, R squared 0.83): > 25 µM

Compound: O=C1Cc2cc(C(=O)Nc3ccc4c(c3)CNC4)ccc2N1
- EC50 ([1]; Zika virus, Vero C1008): > 50 µM
- EC90 ([1]; Zika virus, Vero C1008, Maximum measured 9.003 %, Minimum measured -9.167 %, P-gp concentration 500 nM, P-gp inhibitor CP100356): > 50 µM
- EC90 ([1]; Zika virus, Vero C1008, Baseline response 0 %, Hill slope 1.599, Maximum measured 7.523 %, Maximum response 100 %, Minimum measured -2.208 %, P-gp concentration 500 nM, R squared 0.547, P-gp inhibitor CP100356): > 50 µM
- EC50 ([2]; Dengue virus, Vero C1008): > 50 µM
- EC90 ([2]; Dengue virus, Vero C1008, Maximum measured 132.031 %, Minimum measured 88.326 %): > 50 µM
- EC90 ([2]; Dengue virus, Vero C1008, Maximum measured 147.509 %, Minimum measured 105.326 %): > 50 µM
- EC90 ([2]; Dengue virus, Vero C1008, Maximum measured 183.11 %, Minimum measured 101.645 %): > 50 µM

Compound: O=C(Nc1ccc2c(c1)CNC2)c1cc(Br)cc2[nH]c(=O)[nH]c12
- EC50 ([1]; Zika virus, Vero C1008): > 50 µM
- EC90 ([1]; Zika virus, Vero C1008, Baseline response 0 %, Hill slope 1.27, Maximum measured 26.011 %, Maximum response 100 %, Minimum measured -2.243 %, P-gp concentration 500 nM, R squared 0.854, P-gp inhibitor CP100356): > 50 µM
- EC50 ([2]; Dengue virus, Vero C1008): > 50 µM
- EC90 ([2]; Dengue virus, Vero C1008, Maximum measured 135.314 %, Minimum measured 105.633 %): > 50 µM

Compound: CC(C)n1cc2c(C(=O)Nc3ccc4c(c3)CNC4)cc(Cl)cc2n1
- EC50 ([1]; Zika virus, Vero C1008): 1.67 µM
- EC90 ([1]; Zika virus, Vero C1008): 1.93 µM
- EC50 ([2]; Dengue virus, Vero C1008): > 12.5 µM
- EC90 ([2]; Dengue virus, Vero C1008, Maximum measured 192.332 %, Minimum measured 77.026 %): > 12.5 µM

Compound: CC(C)NC(=O)[C@H](Nc1ccc2c(c1)CNC2)c1cc(Cl)cc2[nH]c(-c3ccccc3)nc12
- EC90 ([1]; Baseline response 0 %, EC90 CI (lower) 1.625 uM, EC90 CI (upper) 3.959 uM, Hill slope 3.776, Maximum measured 116.485 %, Maximum response 100 %, Minimum measured 3.087 %, P-gp concentration 500 nM, R squared 0.948, P-gp inhibitor CP100356): 2.54 µM
- EC90 ([1]; Zika virus, Vero C1008, Maximum measured -0.317 %, Minimum measured -11.958 %, P-gp concentration 500 nM, P-gp inhibitor CP100356): > 50 µM
- EC90 ([1]; Zika virus, Vero C1008, Baseline response 0 %, Hill slope 1.53, Maximum measured 31.705 %, Maximum response 100 %, Minimum measured 3.074 %, P-gp concentration 500 nM, R squared 0.825, P-gp inhibitor CP100356): > 3.12 µM
- EC90 ([2]; Baseline response 0 %, Hill slope -0.821, Maximum measured 139.415 %, Maximum response 100 %, Minimum measured 43.862 %, R squared 0.144): > 50 µM
- EC90 ([2]; Baseline response 0 %, Hill slope -1.532, Maximum measured 181.616 %, Maximum response 100 %, Minimum measured 48.773 %, R squared 0.025): > 50 µM
- EC90 ([2]; Baseline response 0 %, Hill slope -1.75, Maximum measured 104.337 %, Maximum response 100 %, Minimum measured 20.383 %, R squared 0.733): > 12.5 µM
- EC50 ([2]; vero c1008): 5.05 µM and > 50 µM

Compound: Cc1cccc(-c2nc3c(C(=O)Nc4ccc5c(c4)CNC5)cc(F)cc3[nH]2)c1
- EC50 ([1]; Zika virus, Vero C1008): > 50 µM
- EC90 ([1]; Zika virus, Vero C1008, Maximum measured 1.316 %, Minimum measured -3.721 %, P-gp concentration 500 nM, P-gp inhibitor CP100356): > 50 µM
- EC50 ([2]; Dengue virus, Vero C1008): > 50 µM
- EC90 ([2]; Dengue virus, Vero C1008, Maximum measured 188.282 %, Minimum measured 128.713 %): > 50 µM

Compound: O=C(Nc1ccc2c(c1)CNC2)c1cc(F)cc(-c2cccnc2)c1
- EC50 ([1]; Zika virus, Vero C1008): 6.3 µM
- EC90 ([1]; Zika virus, Vero C1008, Baseline response 0 %, Hill slope 23.488, Maximum measured 123.724 %, Maximum response 100 %, Minimum measured 1.449 %, P-gp concentration 500 nM, R squared 0.923, P-gp inhibitor CP100356): 6.91 µM
- EC50 ([2]; Dengue virus, Vero C1008): 0.651 µM
- EC90 ([2]; Dengue virus, Vero C1008, Baseline response 0 %, Hill slope -0.704, Maximum measured 60.172 %, Maximum response 100 %, Minimum measured 15.025 %, R squared 0.92): > 12.5 µM

Compound: C=Cc1cc2c(cc1NC(=O)c1cc(F)cc3[nH]ncc13)CNC2
- EC50 ([1]; Zika virus, Vero C1008): 5.17 µM
- EC90 ([1]; Zika virus, Vero C1008, Baseline response 0 %, EC90 CI (lower) 8.54 uM, EC90 CI (upper) 30.093 uM, Hill slope 1.942, Maximum measured 120.806 %, Maximum response 100 %, Minimum measured 10.445 %, P-gp concentration 500 nM, R squared 0.918, P-gp inhibitor CP100356): 16 µM
- EC50 ([2]; Dengue virus, Vero C1008): > 6.25 µM
- EC90 ([2]; Dengue virus, Vero C1008, Maximum measured 131.207 %, Minimum measured 113.262 %): > 6.25 µM

Compound: O=C(Nc1cc2c(c(C3=CCOCC3)c1)CNC2)c1cc(F)cc2[nH]ncc12
- EC50 ([1]; Zika virus, Vero C1008): 7.33 µM
- EC90 ([1]; Zika virus, Vero C1008, Baseline response 0 %, EC90 CI (lower) 5.793 uM, EC90 CI (upper) 20.937 uM, Hill slope 5.397, Maximum measured 131.01 %, Maximum response 100 %, Minimum measured -1.308 %, P-gp concentration 500 nM, R squared 0.937, P-gp inhibitor CP100356): 11 µM
- EC50 ([2]; Dengue virus, Vero C1008): > 25 µM
- EC90 ([2]; Dengue virus, Vero C1008, Maximum measured 218.898 %, Minimum measured 80.524 %): > 25 µM

Compound: Cc1cc(-c2cc(F)cc(C(=O)Nc3ccc4c(c3)CNC4)c2)[nH]n1
- EC50 ([1]; Zika virus, Vero C1008): 19.3 µM
- EC90 ([1]; Zika virus, Vero C1008, Baseline response 0 %, Hill slope 1.404, Maximum measured 64.496 %, Maximum response 100 %, Minimum measured 4.475 %, P-gp concentration 500 nM, R squared 0.907, P-gp inhibitor CP100356): > 25 µM
- EC50 ([2]; Dengue virus, Vero C1008): > 50 µM
- EC90 ([2]; Dengue virus, Vero C1008, Baseline response 0 %, Hill slope 1.641, Maximum measured 129.562 %, Maximum response 100 %, Minimum measured 66.397 %, R squared 0.205): > 50 µM

Compound: O=C(Nc1ccc2c(c1)CN[C@H]2CCO)c1cc(F)cc2[nH]ncc12
- EC50 ([1]; Zika virus, Vero C1008): > 50 µM
- EC90 ([1]; Zika virus, Vero C1008, Baseline response 0 %, Hill slope 1.133, Maximum measured 29.989 %, Maximum response 100 %, Minimum measured 0.147 %, P-gp concentration 500 nM, R squared 0.888, P-gp inhibitor CP100356): > 50 µM
- EC50 ([2]; Dengue virus, Vero C1008): > 50 µM
- EC90 ([2]; Dengue virus, Vero C1008, Baseline response 0 %, Hill slope 0.366, Maximum measured 128.215 %, Maximum response 100 %, Minimum measured 81.639 %, R squared 0.156): > 50 µM

Compound: O=C(NCC(F)F)[C@H](Nc1cc2c(cc1Br)CNC2)c1cc(Cl)cc(C2CC2)c1
- EC50 ([1]; Zika virus, Vero C1008): 0.807 µM
- EC90 ([1]; Zika virus, Vero C1008, Baseline response 0 %, Hill slope 18.882, Maximum measured 131.702 %, Maximum response 100 %, Minimum measured 12.911 %, P-gp concentration 500 nM, R squared 0.859, P-gp inhibitor CP100356): 0.907 µM
- EC50 ([2]; Dengue virus, Vero C1008): > 50 µM
- EC90 ([2]; Dengue virus, Vero C1008, Maximum measured 177.59 %, Minimum measured 74.788 %): > 50 µM

Compound: O=C(Nc1cc(Br)c2c(c1)CNC2)c1cc(F)cc2[nH]ncc12
- EC50 ([1]; Zika virus, Vero C1008): 1.56 µM
- EC90 ([1]; Zika virus, Vero C1008, Baseline response 0 %, Hill slope 40.279, Maximum measured 114.894 %, Maximum response 100 %, Minimum measured 2.051 %, P-gp concentration 500 nM, R squared 0.957, P-gp inhibitor CP100356): 1.65 µM
- EC50 ([2]; Dengue virus, Vero C1008): > 50 µM
- EC90 ([2]; Dengue virus, Vero C1008, Baseline response 0 %, Hill slope -0.743, Maximum measured 120.32 %, Maximum response 100 %, Minimum measured 52.999 %, R squared 0.166): > 50 µM
